According to patent US20240277847A1, “BENCH-STABLE TRIAZENE COMPOSITIONS FOR PROTEIN MODIFICATION” (ARIZONA BOARD OF REGENTS ON BEHALF OF THE UNIVERSITY OF …, priority 2021, published 2024):

Test: pH of triazene water solution before, during and after 370 nm irradiation
Format: physicochemical
Details: 0.5 mM triazene in water, 370 nm light; for pH change during irradiation: 1 minute
Method: Referring to FIG. 5, 0.5 mM of triazenes 1a, 1g, and 1i were incubated in a water solution and the relative pH was measured before, during, and after irradiation with 370 nm light. […] Furthermore, the data notes that after irradiation has ceased, there is an immediate drop in pH consistent with the reversion of the scaffold to the trans-species.

| SMILES | pH change during irradiation | relative change in pH versus 1g |
| --- | --- | --- |
| COc1ccc(N=Nc2ccc(O)cc2O)cc1 [2i] | notable increases of pH | – |
| COc1ccc(N=NN2CCCCC2)cc1 [1i] | – | over double that of 1g |
| O=[N+]([O-])c1ccc(N=NN2CCCCC2)cc1 [1a] | did not elicit notable pH change | – |
| c1ccc(N=NN2CCCCC2)cc1 [1g] | notable increases of pH | – |
